Laboratory results taken from ChEMBL document CHEMBL1144243, “Isolation, structure, and antibacterial activity of thiazomycin A, a potent thiazolyl peptide antibiotic from Amycolatopsis fastidiosa” (Bioorg Med Chem, 2008).
Values after ≈ are worked out from the molar mass of the structure shown. Active and inactive are the calls of the source. The rule behind the calls is not given here.

What was measured:
[1] = tested on: Streptococcus pneumoniae; experiment: Antibacterial activity against penicillin-susceptible Streptococcus pneumoniae CL2883 after 18 to 20 hrs by serial dilution method; type: functional
[2] = tested on: Enterococcus faecalis; experiment: Antibacterial activity against vancomycin-susceptible Enterococcus faecalis CL8516 after 18 to 20 hrs by serial dilution method; type: functional
[3] = tested on: Staphylococcus aureus; experiment: Antibacterial activity against methicillin-susceptible Staphylococcus aureus MB2865 after 18 to 20 hrs by serial dilution method; type: functional
[4] = tested on: Staphylococcus aureus; experiment: Antibacterial activity against methicillin-resistant Staphylococcus aureus MB5393 containing COL plasmid after 18 to 20 hrs by serial dilution method; type: functional
[5] = tested on: Staphylococcus aureus; experiment: Antibacterial activity against Staphylococcus aureus EP167 after 18 to 20 hrs by serial dilution method; type: functional
[6] = tested on: Haemophilus influenzae; experiment: Antibacterial activity against Haemophilus influenzae MSD2261 after 18 to 20 hrs by serial dilution method; type: functional
[7] = tested on: Escherichia coli; experiment: Antibacterial activity against Escherichia coli MB2884 after 18 to 20 hrs by serial dilution method; type: functional
[8] = tested on: Candida albicans; experiment: Antimicrobial activity against Candida albicans MY1055 after 18 to 20 hrs by serial dilution method; type: functional
[9] = tested on: Staphylococcus aureus; experiment: Inhibition of protein synthesis in Staphylococcus aureus EP167 after 30 mins by scintillation counter; type: functional, organism-based; settings: 0.5 h
[10] = tested on: Staphylococcus aureus; experiment: Inhibition of RNA synthesis in Staphylococcus aureus EP167 after 30 mins by scintillation counter; type: functional, organism-based
[11] = tested on: Staphylococcus aureus; experiment: Inhibition of DNA synthesis in Staphylococcus aureus EP167 after 30 mins by scintillation counter; type: functional, organism-based
[12] = tested on: Staphylococcus aureus; experiment: Inhibition of peptidoglycan synthesis in Staphylococcus aureus EP167 after 30 mins by scintillation counter; type: functional, organism-based
[13] = tested on: Staphylococcus aureus; experiment: Inhibition of phospholipid synthesis in Staphylococcus aureus EP167 after 30 mins by scintillation counter; type: functional, organism-based
[14] = Aqueous solubility of the compound; type: physicochemical; settings: water

Compound | MIC [1] | MIC [2] | MIC [3] | MIC [4] | MIC [5] | MIC [6] | MIC [7] | MIC [8] | IC50 [9] | Activity [10] | Activity [11] | Activity [12] | Activity [13] | solubility [14]
C=C(NC(=O)c1csc(-c2nc3c(cc2O)-c2nc(cs2)C(=O)N[C@@H]([C@@H](C)O)C(=O)N/C(=C(\C)OC)c2nc(cs2)C(=O)N[C@@H]2c4nc(cs4)C(=O)N[C@@H](COC(=O)c4c5c6c(cccc6n4O)COC(=O)[C@@H](O[C@H]4C[C@]6(C)OC(C)N(C)[C@@H]6[C@H](C)O4)[C@H]2OC5)c2nc-3cs2)n1)C(N)=O (some centres undefined) [THIAZOMYCIN A] | 0.002 µg/mL (≈ 0.00138 µM) | 0.25 µg/mL (≈ 0.172 µM) | 0.06 µg/mL (≈ 0.0414 µM) | 0.06 µg/mL (≈ 0.0414 µM) | 0.004 µg/mL (≈ 0.00276 µM) | > 32 µg/mL | > 32 µg/mL | > 32 µg/mL | 0.7 µg/mL (≈ 0.483 µM) | inactive | inactive | inactive | inactive | < 100 µg/mL
C=C(NC(=O)c1csc(-c2nc3c(cc2O)-c2nc(cs2)C(=O)N[C@@H]([C@@H](C)O)C(=O)N/C(=C(\C)OC)c2nc(cs2)C(=O)N[C@@H]2c4nc(cs4)C(=O)N[C@@H](COC(=O)c4c5c6c(cccc6n4O)COC(=O)[C@@H](O[C@H]4C[C@]6(C)OCN(C)[C@@H]6[C@H](C)O4)[C@H]2OC5)c2nc-3cs2)n1)C(N)=O [THIAZOMYCIN] | 0.004 µg/mL (≈ 0.00279 µM) | 0.064 µg/mL (≈ 0.0446 µM) | 0.016 µg/mL (≈ 0.0111 µM) | 0.032 µg/mL (≈ 0.0223 µM) | – | > 32 µg/mL | > 32 µg/mL | > 32 µg/mL | – | – | – | – | – | –
CC(=O)NC[C@H]1CN(c2ccc(N3CCOCC3)c(F)c2)C(=O)O1 [LINEZOLID] | – | – | – | – | – | > 32 µg/mL | > 32 µg/mL | > 32 µg/mL | – | – | – | – | – | –
